Measured values reported in patent US5840893A, “Compounds for treating infectious diseases” (priority 1996, dated 1998).
Where a name gives a salt, the structure may show the parent alone. Read-outs that look alike come from different tables or passages of the source.

What was measured:
in vitro = in vitro ADME, mouse (ND4 Swiss Webster); conditions: for number of metabolites: mouse liver post-mitochondrial supernatant, NADPH
Protocol: Several female ND4 Swiss Webster mice were euthanized by carbon dioxide inhalation and the livers excised and rinsed with ice cold phosphate buffered saline (pH 7.4). The livers were minced, gently homogenized in 50 mM phosphate buffer (pH 7.4) with a Dounce homogenizer, and centrifuged at 9600×g for 20 min. The post-mitochondrial supernatant was kept, glycerol added to 20%, and frozen at -70° C. in 1.0 ml aliquots until used. For each incubation, 1.0 ml of a 1.0 mg/ml drug solution was added to 3.0 ml of 50 mM phosphate buffer (pH 7.4), 1.0 ml of 2 mg/ml NADPH in 50 mM phosphate (pH 7.4), and 1.0 ml of the post-mitochondrial supernatant. Five hundred μl of each incubate was then immediately transferred to an ice-cold tube to provide the zero-time sample, and addition 500 μl aliquots removed to ice-cold tubes at 8, 15, 30, and 60 min. The samples were then extracted, and analyzed by HPLC as described in section 7.1. Control incubations were also performed where drug or post-mitochondrial supernatant was omitted. […] Peaks in the CNI compound incubations which increased over time, and were not present in control samples lacking the enzyme preparation were treated as putative metabolites.

HIV-1 [1] = assay: Viral production in HIV-1-infected cultured monocytes at fixed 100 nM compound (Table II); type: cell-based; conditions: Human immunodeficiency virus 1, Monocyte, read-out: Viral Production (percentage of untreated control)
Protocol: Alternatively, the compounds may all be compared for inhibition of HIV replication at a fixed concentration. Presented in Table II are compounds that were used at a concentration of 100 nM to inhibit the production of HIV-1 in cultured monocytes infected with HIV-1 10 days prior to assay (10 ng of p24/10^6 cells) . The production of HIV-1 in each treated culture is reported as percentage of untreated control.

HIV-1 [2] = assay: Inhibition of HIV-1 replication in cultured macrophages (Table I); type: cell-based; conditions: Human immunodeficiency virus 1, Macrophage; 50% inhibition of viral growth, RT or p24, macrophages
Protocol: A quantitative measurement of the activity of the compounds of the invention to block the replication of HIV-1 in non-dividing cells can be determined by culture of a macrophage-tropic strain of HIV-1 on peripheral blood-derived macrophages. The cells are cultured for 5-6 days prior to infection in a medium consisting of DMEM supplemented with 10% type A/B human serum and 200 U/ml Macrophage Colony Stimulating Factor, with half the medium changed after 3 days, to reach a density of about 10^6 cells per 5 ml well. A macrophage-tropic viral stock may be grown on these cells. The concentration of infectious particles in the stock is estimated by measurement of p24 antigen concentration.
To test the effect of compounds of the invention on HIV- 1 infection in the above-described culture system, the medium is removed and replaced with medium containing HIV-1 at a concentration of 1 ng of p24 (10^4 TCID50 /ml (TCID=tissue culture infectious doses)) and a known concentration of the compound of the invention (the inhibitor). After 24 hours, the cultures are washed to remove non-adherent virus and the culture is re-fed with medium containing the inhibitor at the desired concentration. The amount of replication of HIV-1 is estimated by an assay of the reverse transcriptase activity or by an assay of the concentration of p24 antigen in the culture medium every 2-3 days throughout the post-infection period. In a preferred embodiment the anti-HIV potency of the candidate drug is measured by comparison of the concentration of reverse transcriptase (RT) or of p24 antigen in the medium of the treated and control cultures at the time of the peak of these values in non-treated control cultures, that is about day 5 or 6 post-infection. Repetition at various levels of inhibitor allows for the calculation of the concentration of inhibitor that achieves 50% inhibition of viral growth, IC50. Table I discloses the IC50 of various inhibitors.

mice = assay: Toxicity study: median lethal dose in mice, i.p.; type: in vivo
Protocol: The doses of compounds of the invention found to be lethal to 50% of the mice (LD50) were determined by intraperitoneal injection of groups of five animals with increasing doses of each compound. CNI-0294 was administered from 0, 2, 10, 20, 40, 80, 160, 320, 640, 1280 mg/kg in 0.5 ml of water/HCl; CNI-1594 at 0, 2.4, 5, 10, 20, 40, 80 mg/kg in 0.5 ml of water/HCl; CNI-1794 at 0, 20, 50, 80 mg/kg in 0.5 ml of water/HCl; and CNI-1894 at 0, 10, 20, 40, 80, 240, 480, 960 mg/kg in water/HCl. […] The percentage of animals in each group which died were utilized to calculate the LD50 by non-linear curve fitting with the Enzfit software (Elsevier Bioscience; Cambridge, UK) programmed with the Chou equation (Chou 1976, J Theor Biol 39:253-276)).
The compounds (FIGS. 4A-E), were screened for toxicity via a modified LD50 assay procedure as described above in an outbred strain of mice.

[3] = system: Plasmodium falciparum clone Dd2; assay: Antimalarial activity in vitro, hypoxanthine incorporation, clone Dd2; type: cell-based; conditions: for IC50: Plasmodium falciparum, DD2, read-out: IC50 ± standard deviation
Protocol: The antimalarial activity of the compounds was determined essentially as described in Desjardins et al. supra. Fifty Al of various concentrations of a compound of the invention, chloroquine, or pyrimethamine were added to the wells of microtiter plates, followed by 200 Al of ring-stage, synchronized, P. falciparum-infected erythrocytes (final hematocrit=1.5%, final parasitemia=1-5%). The plates were incubated for 24 hr in a candle jar kept at 37° C., and then 25 μl of [^3 H]-hypoxanthine (Amersham, Arlington Heights, Ill.; 2.5 μl Ci/well) was added. The plates were then incubated for a further 24 hr, before harvesting onto Unifilter-96 GF/C filter-microplates (Packard; Meriden, Conn.). Twenty-five μl of Microscint scintillation fluid (Packard) was added to each well of the filter-microplate, which was subsequently counted in a Top-count microplate scintillation counter (Packard). The percent of [^3 H] -hypoxanthine uptake relative to control infect-erythrocytes was used to determine the IC50 value for the compounds by non-linear regression for LD50 determination.
The Dd2 clone of P. falciparum, which was both chloroquine and pyrimethamine resistant, was utilized to compare the antimalarial activity of the remaining CNI compounds (Table VIII).

[4] = i.p., 50 mg/kg, water
Protocol: (§1) Standard addition curves for each test compound were constructed by adding increased amounts of drug to mouse or human A^+ plasma (Long Island Blood Services; Melville, N.Y.). […] The eluted sample was reduced to dryness in a rotary evaporator and resuspended in 1.0 ml Buffer A.
(§2) Female ND4 Swiss Webster mice (21-24 g) were obtained from Harlan Sprague Dawley (Indianapolis, Ind.) and randomly placed in groups of five in cages with free access to food and water. […] The other CNI compounds were administered intraperitoneally or by oral gavage as a solution in water titrated with sufficient HCl to dissolve the drug. At various time points, ranging from 5 min to 4 days, a single group of animals was euthanized by carbon dioxide inhalation and bled by cardiac puncture using heparin as an anticoagulant. The blood from the five mice in the group was pooled and centrifuged at 14000×g for 10 min. The volume of plasma was measured, and equal volume of Buffer A added, and the mixture extracted and analyzed as described above, except that the dried eluates were resuspended in 200 μl Buffer A and 100 μl was injected onto the high performance liquid chromatography (HPLC) system.
(§3) The area under the plasma concentration-time curve (AUC) was determined, and bioavailability was measured as AUCoral /AUCi.p.. […] The volume of distribution (VD) was calculated as dose/B, and the total clearance rate (Cltot) calculated as β*VD. Cmax and tmax are the maximal plasma concentration and time of this measurement, respectively.

in vivo = conditions: mouse, plasma, ip, 50 mg/kg
Protocol: as §1, §2, §3

HIV-1 [5] = assay: AZT and Compound No. 2 in combination on HIV-1 infected monocyte cultures (RT activity); type: cell-based, HIV-1 in human monocyte cultures; conditions: for RT activity: (-) No. 2
Protocol: Primary human monocytes were obtained from peripheral blood by Ficoll-Hypaque centrifugation and adherence to plastic as described previously. Gartner S. P., et al., 1986, Science 233:215. Briefly, after Ficoll-Hypaque (Pharmacia) separation, PBMCs were washed 4 times with DMEM (the last wash was done at 800 rpm to remove platelets) and resuspended in monocyte culture medium [DMEM supplemented with 1 mM glutamine, 10% heat-inactivated human serum, 1% penicillin+streptomycin mixture (Sigma)] at a density of 6×10^6 cells/ml. Cells were seeded in 24-well plates (1 ml per well) and incubated for 2 h at 37° C., 5% CO2. Following incubation, cells were washed 3 times with DMEM to remove non-adherent cells and incubation was continued in monocyte culture medium supplemented with 250 U/ml human M-CSF (Sigma). Cells were allowed to mature for 7 days prior to infection with the monocyte-tropic strain, HIV-1ADA. Nuovo, G. J., et al., 1992, Diagn. Mol. Pathol. 1:98. Two hours after infection, cells were washed with medium and cultured in RPMI supplemented with 10% human serum. In experiments where PCR analysis was performed, virus was pretreated with RNAse-free DNAse (Boehinger-Mannheim)for 2 h at room temperature and then filtered though a 0.2 μm pore nitrocellulose filter prior to infection.
For the reverse transcriptase (RT) assay, 10 μl of culture supernatant was added to 40 μl of reaction mixture (final composition was 50 mM Tris-HCl, pH 7.8; 20 mM KCl; 5 mM MgCl2; 1 mM DTT; 0.1% Triton X-100; 0.2 OD/ml polyA; 0.2 OD/ml oligo(dT)12-18; and 40 μCi/ml ^3 H-dTTP (76 Ci/mmol, DuPont) and incubated 2 hr at 37° C. 5 μl of the reaction mixture was then spotted onto the DE 81 (Whatman) paper. Paper was air dried and washed 5 times with 5% Na2 HPO4, followed by rinsing with distilled water. After air drying, paper was put on a Flexi Filter plate (Packard), covered with scintillation fluid and counted in a Top Count Microplate Counter (Packard). Results are expressed as counts per minute in 1 ml of supernatant (cpm/ml).
In view of these premises, the effects on HIV-1 replication in human monocyte cultures of the various concentrations of AZT, alone or in combination with 100 nM Compound No. 2, were tested using the protocols of Sections 6.2.1 and 6.2.2. Drugs were added to the monocyte cultures together with HIV-1 at about 10^5 TCID/ml. The concentration of drugs was maintained on refeeding. HIV-1 replication was assessed by assay of the supernatant for reverse transcriptase activity. The results are expressed as mean±std. dev. (cpmx10^-3) in Table V.

[6] = 100 nM compound, monocytes infected 10 days prior, 10 ng p24/10^6 cells

N=C(N)c1ccc(OCCCCCOc2ccc(C(=N)N)cc2)cc1 [pentamidine, reference compound]
number of metabolites (in vitro): seven

CC(=O)c1cccc(C(C)=O)c1N [2,6-diacetylaniline]
activity at 0.1 µM (HIV-1 [1]; [6]): 28%

CC(=O)c1cc(NC(=N)NC(=N)N)cc(C(C)=O)c1 [Compound No. 12, N-(3,5-diacetylphenyl)biguanide hydrochloride]
activity at 0.1 µM (HIV-1 [1]; [6]): 12%

CC(=O)c1cccc(Nc2cc(C)[n+](C)c(N)n2)c1 [Compound No. 14, 2-amino-4-(3-acetylphenyl)amino-1,6-dimethylpyrimidinium iodide]
IC50 (HIV-1 [2]): 0.01 µM

CC(=O)c1cc(N)cc(C(C)=O)c1 [CNI-1894, 3,5-diacetylaniline]
activity at 0.1 µM (HIV-1 [1]; [6]): 20% | LD50 (median lethal dose) (mice): 258.64 ± 1.37 mg/kg | signs and time of toxic reactions / death (mice): died 2-3 days post injection, and showed no sign of any immediate toxicity | tolerability (mice): reasonably well tolerated | number of metabolites (in vitro): one minor and one major metabolite | metabolised at 1 h (in vitro; mouse, liver post-mitochondrial supernatant, 60 min incubation, by peak area, read-out: drug altered (metabolic conversion)): 17.3% | IC50 [3]: > 200 µM | antimalarial activity at the highest concentration tested ([3]; clone Dd2, 200 μM): inactive at the highest concentration tested | A (zero time intercept, distribution phase) [4]: 14.93 µg/mL | B (zero time intercept, elimination phase) [4]: 0.15 µg/mL | VD [4]: 6.60 L | t1/2α [4]: 0.58 h | t1/2β [4]: 23.10 h | α [4]: 1.19 h⁻¹ | CL/F (in vivo): 3.3 mL/min | k el (in vivo): 8.33e-06 s⁻¹

Cc1cn([C@H]2C[C@H](N=[N+]=[N-])[C@@H](CO)O2)c(=O)[nH]c1=O [AZT]
inhibition at 10 pM (HIV-1 [5]; Human immunodeficiency virus 1, Monocyte, 264 h, read-out: reduction in RT activity): ~20% | RT activity (HIV-1 [5]; day-7, AZT 10 pM): 0.92 ± 0.21 cpmx10^-3 | RT activity (HIV-1 [5]; day-7, AZT 100 pM): 0.79 ± 0.14 cpmx10^-3 | RT activity (HIV-1 [5]; day-7, AZT 1 nM): 0.60 ± 0.28 cpmx10^-3 | RT activity (HIV-1 [5]; day-7, AZT 10 nM): 0.05 ± 0.02 cpmx10^-3 | RT activity (HIV-1 [5]; day-11, AZT 10 pM): 1.63 ± 0.81 cpmx10^-3 | RT activity (HIV-1 [5]; day-11, AZT 100 pM): 1.34 ± 0.59 cpmx10^-3 | RT activity (HIV-1 [5]; day-11, AZT 1 nM): 1.07 ± 0.49 cpmx10^-3 | RT activity (HIV-1 [5]; day-11, AZT 10 nM): 0.08 ± 0.03 cpmx10^-3

Cc1cc(Nc2ccccc2)nc(N)n1 [Compound No. 45, 4-phenylamino-2-amino-6-methylpyrimidine]
IC50 [3]: 25.1 ± 0.72 µM

CC(=O)c1cc(Nc2nc(N)nc(N)n2)cc(C(C)=O)c1 [Compound No. 13, 2-(3,5-diacetylphenyl)amino-4,6-diamino-1,3,5-triazine]
activity at 0.1 µM (HIV-1 [1]; [6]): 14%

CC(=O)c1ccc(Nc2cc(C)nc(N)n2)cc1 [Compound No. 17, 2-amino-4-(4-acetylphenyl)amino-6-methylpyrimidine]
activity at 0.1 µM (HIV-1 [1]): 20% | LD50 (median lethal dose) (mice): 48.93 ± 0.12 mg/kg | LD50 compared with CNI-1594 (mice): identical to that for CNI-1594 | signs and time of toxic reactions / death (mice): suggested a lethal neurotoxicity

CC(=O)c1cncc(C(C)=O)c1 [3,5-diacetylpyridine]
activity at 0.1 µM (HIV-1 [1]; [6]): 58%
